Measurements taken from patent US10590106B2, “Certain chemical entities, compositions, and methods” (NeuPharma, Inc., priority 2012, dated 2020).

Tests used:
[1] = molecular target: BRAF V600E (Homo sapiens (Human), UniProt P15056, V600E); test: Inhibitory activity against kinase BRAF V600E, Z'-LYTE method (Invitrogen); type: biochemical; settings: 1 μM compound; read-out: Inhibition (% inhibition at 1 μM) against BRAF V600E
In short: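 FRET-based Z′-LYTE peptide-phosphorylation assay in 50 mM HEPES pH 7.5, 0.01% BRIJ-35, 10 mM MgCl2, 1 mM EGTA; kinase reaction 60 min at room temperature, then 60 min development before fluorescence read. IC50 from concentration vs % inhibition; single-point % inhibition tested at 1 μM.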

[2] = test system: A549 cells; test: Inhibition of cancer cell growth, MTT or MTS assay, A549; type: cell-based; settings: Homo sapiens, 72 h incubation
In short: (§1)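 Cells in RPMI 1640 with 10% FBS were seeded at ~2000 (A375) or 4000 (A549, Colo205) per well, grown 24 h, then exposed to compound 72 h at 1% final DMSO. Read-out by MTT (570 nm) or MTS (490 nm). IC50 from concentration vs percent inhibition, triplicates.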

[3] = molecular target: KDR (VEGFR2) (Homo sapiens (Human), UniProt P35968); test: Inhibitory activity against kinase KDR, Z'-LYTE method (Invitrogen); type: biochemical; settings: 1 μM compound; read-out: Inhibition (% inhibition at 1 μM) against KDR
In short: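 Human KDR (VEGFR2) kinase inhibition was measured with Invitrogen's Z′-LYTE® method. A 2× mixture of KDR and Tyr 01 peptide is made in 50 mM HEPES pH 7.5, 0.01% BRIJ-35, 10 mM MgCl2, 1 mM EGTA. Each 10 μL reaction holds 0.5-11.7 ng enzyme and 2 μM Tyr 01. It incubates for 1 hour, then 5 μL of Development Reagent B diluted 1:256 is added.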

[4] = molecular target: BRAF (Homo sapiens (Human), UniProt P15056); test: Inhibitory activity against kinase BRAF, Z'-LYTE method (Invitrogen); type: biochemical; settings: 1 μM compound
Protocol: Inhibitory activities Inhibitory activities of compounds against BRAF, and BRAF V600E were measured by Invitrogen using Z′-LYTE® Method as briefly described in the following. 4× Test compounds are dissolved in 1% DMSO. […] ATP solutions are diluted to a 4×ATP working concentration in Kinase Buffer (50 mM HEPES pH 7.5, 0.01% BRIJ-35, 10 mM MgCl2, 1 mM EGTA). Reaction started by 30-second shaking of mixture consisting of 2.5 μL 4× test compound, […] and 2.5 μL 4×ATP Solution on Bar-coded Corning, low volume NBS, black 384-well plate (Corning Cat. #3676). Then the mixture was incubated for 60-minute at room temperature for the kinase reaction, followed by addition of 5 μL of a 1:1024 dilution of development reagent A and 30-second plate shake. The mixture was then incubated for another 60-minute at room temperature for development reaction. Fluorescence was read by plate reader. IC50 was calculated by plotting the concentration of compound vs the percentage of inhibition in treated wells using GraphPad Prism 5.
Table 2 and 3 show % inhibition at 1 μM of several compounds of the invention against BRAF and BRAF V600E, respectively, using Z′-LYTE® method.

[5] = test system: A375 cells; test: Inhibition of cancer cell growth, MTT or MTS assay, A375; type: cell-based; settings: Homo sapiens, A-375; 72 h incubation
In short: as §1

Chain of BRAF (P15056 whole entry): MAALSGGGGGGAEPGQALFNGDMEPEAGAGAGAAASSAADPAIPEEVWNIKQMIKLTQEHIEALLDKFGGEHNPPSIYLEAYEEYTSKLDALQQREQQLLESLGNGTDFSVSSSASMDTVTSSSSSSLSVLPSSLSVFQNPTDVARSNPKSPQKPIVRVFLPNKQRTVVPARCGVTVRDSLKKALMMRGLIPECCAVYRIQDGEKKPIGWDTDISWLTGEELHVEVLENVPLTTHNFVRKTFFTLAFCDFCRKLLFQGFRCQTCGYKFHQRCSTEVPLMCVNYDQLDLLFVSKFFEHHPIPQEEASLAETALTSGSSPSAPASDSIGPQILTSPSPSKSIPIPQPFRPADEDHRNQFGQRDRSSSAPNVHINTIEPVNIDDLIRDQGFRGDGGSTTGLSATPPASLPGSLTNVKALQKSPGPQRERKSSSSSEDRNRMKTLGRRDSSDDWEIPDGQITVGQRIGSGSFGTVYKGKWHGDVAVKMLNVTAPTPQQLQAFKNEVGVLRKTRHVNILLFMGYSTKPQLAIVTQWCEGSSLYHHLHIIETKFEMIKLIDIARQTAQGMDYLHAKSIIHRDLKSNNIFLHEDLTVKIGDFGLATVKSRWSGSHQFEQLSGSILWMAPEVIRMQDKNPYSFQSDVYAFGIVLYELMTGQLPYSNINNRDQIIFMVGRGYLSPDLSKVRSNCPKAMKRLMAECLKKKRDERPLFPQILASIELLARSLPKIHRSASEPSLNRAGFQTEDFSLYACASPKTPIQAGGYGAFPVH
Chain of BRAF V600E (P15056 whole entry V600E): as the sequence (P15056 whole entry) above, with V600E counted along it
Chain of KDR (VEGFR2) (P35968 20-1356): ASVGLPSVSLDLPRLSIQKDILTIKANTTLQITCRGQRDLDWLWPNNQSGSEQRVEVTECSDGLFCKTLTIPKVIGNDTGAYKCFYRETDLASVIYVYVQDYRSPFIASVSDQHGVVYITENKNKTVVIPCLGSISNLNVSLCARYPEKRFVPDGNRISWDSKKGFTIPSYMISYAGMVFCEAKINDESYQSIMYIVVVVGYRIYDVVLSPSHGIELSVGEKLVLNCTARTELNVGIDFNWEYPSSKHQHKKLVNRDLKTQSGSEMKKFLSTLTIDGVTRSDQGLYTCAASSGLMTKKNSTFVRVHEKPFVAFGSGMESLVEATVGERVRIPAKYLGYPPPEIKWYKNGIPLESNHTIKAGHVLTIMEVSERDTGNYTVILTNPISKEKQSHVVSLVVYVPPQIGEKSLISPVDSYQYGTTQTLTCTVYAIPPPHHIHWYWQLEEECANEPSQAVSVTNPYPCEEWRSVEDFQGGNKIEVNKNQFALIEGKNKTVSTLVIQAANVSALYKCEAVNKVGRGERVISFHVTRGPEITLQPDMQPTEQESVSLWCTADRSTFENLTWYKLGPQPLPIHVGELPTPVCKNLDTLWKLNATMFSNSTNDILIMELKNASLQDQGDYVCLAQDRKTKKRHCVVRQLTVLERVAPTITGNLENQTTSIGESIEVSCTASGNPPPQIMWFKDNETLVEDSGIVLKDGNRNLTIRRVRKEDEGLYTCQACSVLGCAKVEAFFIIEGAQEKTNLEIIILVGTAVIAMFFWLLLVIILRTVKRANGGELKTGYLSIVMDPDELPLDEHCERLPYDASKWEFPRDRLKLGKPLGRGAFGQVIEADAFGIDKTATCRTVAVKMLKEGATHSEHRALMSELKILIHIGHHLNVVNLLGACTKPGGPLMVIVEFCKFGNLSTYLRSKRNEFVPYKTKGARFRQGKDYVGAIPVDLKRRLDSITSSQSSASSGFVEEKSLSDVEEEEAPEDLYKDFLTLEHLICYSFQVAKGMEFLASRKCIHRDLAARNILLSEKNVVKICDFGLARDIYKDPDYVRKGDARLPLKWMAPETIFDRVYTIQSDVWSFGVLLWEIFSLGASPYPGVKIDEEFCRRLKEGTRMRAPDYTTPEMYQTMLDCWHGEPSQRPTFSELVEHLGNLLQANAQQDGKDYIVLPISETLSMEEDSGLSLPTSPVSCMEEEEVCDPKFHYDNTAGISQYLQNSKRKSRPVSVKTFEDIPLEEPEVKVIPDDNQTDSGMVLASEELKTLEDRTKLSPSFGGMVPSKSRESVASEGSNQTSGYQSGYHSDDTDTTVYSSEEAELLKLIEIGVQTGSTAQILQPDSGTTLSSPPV

SMILES | inhibition at 1 µM [1] | IC50 [2] | inhibition at 1 µM [3] | inhibition at 1 µM [4] | IC50 [5]
O=C(Nc1cc(F)cc(F)c1)Nc1cccc(Oc2ccc3ncc(N4CCNCC4)nc3c2)c1 [Compound C039, 1-(3,5-difluorophenyl)-3-(3-((3-(piperazin-1-yl)quinoxalin-6-yl)oxy)phenyl)urea] | > 89% | > 5 µM | 70 to 89% | > 89% | 
O=C(Nc1ccc(Oc2ccc3ncc(N4CCOCC4)nc3c2)cc1)Nc1cccc(Cl)c1 [Compound C081, 1-(3-chlorophenyl)-3-(4-((3-morpholinoquinoxalin-6-yl)oxy)phenyl)urea] | > 89% | > 5 µM | > 89% | < 70% | 
O=C(Nc1ccc(F)cc1)Nc1cccc(Oc2ccc3ncc(N4CCOCC4)nc3c2)c1 [Compound C043, 1-(4-fluorophenyl)-3-(3-((3-morpholinoquinoxalin-6-yl)oxy)phenyl)urea] | > 89% | > 5 µM | > 89% | 70 to 89% | 
O=C(Nc1cccc(Oc2ccc3ncc(N4CCNCC4)nc3c2)c1)Nc1cccc(C(F)(F)F)c1 [Compound C040, 1-(3-((3-(piperazin-1-yl)quinoxalin-6-yl)oxy)phenyl)-3-(3-(trifluoromethyl)phenyl)urea] | > 89% | 2 to 5 µM | > 89% | > 89% | 
O=C(Nc1cccc(Oc2ccc3ncc(N4CCOCC4)nc3c2)c1)Nc1ccc(F)c(F)c1 [Compound C044, 1-(3,4-difluorophenyl)-3-(3-((3-morpholinoquinoxalin-6-yl)oxy)phenyl)urea] | > 89% | > 5 µM | 70 to 89% | 70 to 89% | 
O=C(Nc1ccc(F)cc1)Nc1ccc(Oc2ccc3nccnc3c2)cc1F [Compound C094, 1-(2-fluoro-4-(quinoxalin-6-yloxy)phenyl)-3-(4-fluorophenyl)urea] | > 89% |  |  | 70 to 89% | > 5 µM
O=C(Nc1ccc(F)c(F)c1)Nc1ccc(F)c(Oc2ccc3ncc(N4CCOCC4)nc3c2)c1 [Compound C052, 1-(3,4-difluorophenyl)-3-(4-fluoro-3-((3-morpholinoquinoxalin-6-yl)oxy)phenyl)urea] | > 89% |  | 70 to 89% | 70 to 89% | 1 to 5 µM
O=C(Nc1ccc(Cl)cc1)Nc1ccc(Oc2ccc3nccnc3c2)cc1F [Compound C096, 1-(4-chlorophenyl)-3-(2-fluoro-4-(quinoxalin-6-yloxy)phenyl)urea] | > 89% |  |  | < 70% | > 5 µM
O=C(Nc1cccc(Oc2ccc3ncc(N4CCOCC4)nc3c2)c1)Nc1ccc(Cl)c(C(F)(F)F)c1 [Compound C049, 1-(4-chloro-3-(trifluoromethyl)phenyl)-3-(3-((3-morpholinoquinoxalin-6-yl)oxy)phenyl)urea] | 70 to 89% | 2 to 5 µM | > 89% | 70 to 89% | 
O=C(Nc1ccc(Oc2ccc3nccnc3c2)cc1)Nc1cccc(F)c1 [Compound C074, 1-(3-fluorophenyl)-3-(4-(quinoxalin-6-yloxy)phenyl)urea] | 70 to 89% | 2 to 5 µM |  | < 70% | 1 to 5 µM
O=C(Nc1cccc(Oc2ccc3ncc(N4CCNCC4)nc3c2)c1)Nc1ccc(Cl)c(C(F)(F)F)c1 [Compound C041, 1-(4-chloro-3-(trifluoromethyl)phenyl)-3-(3-((3-(piperazin-1-yl)quinoxalin-6-yl)oxy)phenyl)urea] | > 89% | < 2 µM | > 89% | > 89% | 
O=C(Nc1cccc(F)c1)Nc1cccc(Oc2ccc3nccnc3c2)c1 [Compound C002, 1-(3-fluorophenyl)-3-(3-(quinoxalin-6-yloxy)phenyl)urea] | 70 to 89% |  | 70 to 89% | 70 to 89% | > 5 µM
O=C(Nc1cccc(Cl)c1)Nc1cccc(Oc2ccc3ncc(N4CCNCC4)nc3c2)c1 [Compound C050, 1-(3-chlorophenyl)-3-(3-((3-(piperazin-1-yl)quinoxalin-6-yl)oxy)phenyl)urea] | > 89% | 2 to 5 µM | > 89% | > 89% | 

Other lines, results leading:

inhibition at 1 µM [1] | IC50 [2] | inhibition at 1 µM [3] | inhibition at 1 µM [4] | IC50 [5] | SMILES
> 89% | 2 to 5 µM | > 89% | > 89% |  | O=C(Nc1cccc(C(F)(F)F)c1)Nc1ccc(F)c(Oc2ccc3ncc(N4CCNCC4)nc3c2)c1 [Compound C065, 1-(4-fluoro-3-((3-(piperazin-1-yl)quinoxalin-6-yl)oxy)phenyl)-3-(3-(trifluoromethyl)phenyl)urea]
> 89% | 2 to 5 µM | > 89% | > 89% |  | O=C(Nc1ccc(Cl)cc1)Nc1cccc(Oc2ccc3ncc(N4CCNCC4)nc3c2)c1 [Compound C051, 1-(4-chlorophenyl)-3-(3-((3-(piperazin-1-yl)quinoxalin-6-yl)oxy)phenyl)urea]
> 89% | < 2 µM | > 89% | > 89% |  | O=C(Nc1ccc(F)c(Cl)c1)Nc1ccc(F)c(Oc2ccc3ncc(N4CCNCC4)nc3c2)c1 [Compound C067, 1-(3-chloro-4-fluorophenyl)-3-(4-fluoro-3-((3-(piperazin-1-yl)quinoxalin-6-yl)oxy)phenyl)urea]
> 89% | 2 to 5 µM | 70 to 89% | > 89% |  | O=C(Nc1cc(F)cc(F)c1)Nc1ccc(F)c(Oc2ccc3ncc(N4CCNCC4)nc3c2)c1 [Compound C062, 1-(3,5-difluorophenyl)-3-(4-fluoro-3-((3-(piperazin-1-yl)quinoxalin-6-yl)oxy)phenyl)urea]
> 89% | 2 to 5 µM | > 89% | > 89% |  | O=C(Nc1ccc(Cl)cc1)Nc1ccc(F)c(Oc2ccc3ncc(N4CCNCC4)nc3c2)c1 [Compound C064, 1-(4-chlorophenyl)-3-(4-fluoro-3-((3-(piperazin-1-yl)quinoxalin-6-yl)oxy)phenyl)urea]
> 89% | > 5 µM | 70 to 89% | > 89% |  | O=C(Nc1ccc(F)c(F)c1)Nc1ccc(F)c(Oc2ccc3ncc(N4CCNCC4)nc3c2)c1 [Compound C061, 1-(3,4-difluorophenyl)-3-(4-fluoro-3-((3-(piperazin-1-yl)quinoxalin-6-yl)oxy)phenyl)urea]
> 89% | 2 to 5 µM | 70 to 89% | > 89% |  | O=C(Nc1cccc(F)c1)Nc1ccc(F)c(Oc2ccc3ncc(N4CCNCC4)nc3c2)c1 [Compound C059, 1-(4-fluoro-3-((3-(piperazin-1-yl)quinoxalin-6-yl)oxy)phenyl)-3-(3-fluorophenyl)urea]
> 89% | < 2 µM | 70 to 89% | > 89% |  | O=C(Nc1ccc(Cl)c(F)c1)Nc1ccc(F)c(Oc2ccc3ncc(N4CCNCC4)nc3c2)c1 [Compound C068, 1-(4-chloro-3-fluorophenyl)-3-(4-fluoro-3-((3-(piperazin-1-yl)quinoxalin-6-yl)oxy)phenyl)urea]
> 89% | > 5 µM | > 89% | > 89% |  | O=C(Nc1cccc(Oc2ccc3ncc(N4CCNCC4)nc3c2)c1)Nc1ccc(F)c(F)c1 [Compound C036, 1-(3,4-difluorophenyl)-3-(3-((3-(piperazin-1-yl)quinoxalin-6-yl)oxy)phenyl)urea]
> 89% | 2 to 5 µM | > 89% | > 89% |  | O=C(Nc1cccc(Cl)c1)Nc1ccc(F)c(Oc2ccc3ncc(N4CCNCC4)nc3c2)c1 [Compound C063, 1-(3-chlorophenyl)-3-(4-fluoro-3-((3-(piperazin-1-yl)quinoxalin-6-yl)oxy)phenyl)urea]
